The record followed here is PubChem BioAssay (NCI).

For the experiment, the system named is MDA-MB-468 breast. Kind of experiment: growth of human tumour cells (NCI), 48 h.

Several values for one entry are separate records, joined by “and”; a condition that tells them apart may be missing. Identical values can stand only once.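 Following 48 hours of exposure in 96-well plates, responses at five concentrations were used to interpolate endpoints linearly. The concentration for 50% growth inhibition is given as GI50. TGI is the concentration that stops growth completely.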

For the compound `CCCCCCCCCCCCCCCCCCOP(=O)([O-])OC1CC[N+](C)(C)CC1`, the GI50 is 3740 nM and the TGI is more than 10000 nM.

Turning to `CCCCCCCCCCCCC[N+](C)(C)Cc1ccccc1`, the GI50 is 213 nM and the TGI was 852 nM.

As to `CC(C)(O)c1coc(S(=O)(=O)/N=C(\O)Nc2c3c(cc4c2CCC4)CCC3)c1`, the GI50 is more than 100000 nM and the TGI is more than 100000 nM. On to `COc1c(OCCCN2CCOCC2)ccc2c3n(c(=NC(=O)c4cnc(N)nc4)nc12)CCN3`, for which the GI50 is 21.2 nM and 27.9 nM and 38.9 nM; the TGI was 229 nM [middle of 4 runs]. For `Cn1cc(C2=C(Sc3ccccc3)C(=O)NC2=O)c2ccccc21`, the GI50 was 4940 nM and the TGI stood at 10400 nM.

As to `COc1cc(C2c3cc4c(cc3OC(N3CCCCC3)C2C)OCO4)cc(OC)c1OC` (stereo unspecified), the GI50 was 3660 nM and the TGI amounted to 30300 nM. As to `CCOC(=O)c1ccc2c(c1)c1c(C)c3ccncc3c(C)c1n2C`, the GI50 was 1160 nM and the TGI turned out to be 2830 nM.

On to `COC(=O)c1c2c(c[n+]([O-])c1C)C(=O)C=C(NCc1ccccc1)C2=O`, for which the GI50 is 138 nM and the TGI turned out to be 371 nM. For `CC1=C(SCCC(=O)OCC(=O)NCCC[Te]c2ccccc2)C(=O)c2ccccc2C1=O`, in that order: 1810 nM and 3610 nM. Consider `COc1ccc2c(c1)N(CCO)C1=C(C(=O)OC1)C2c1cc(OC)c(OC)c(OC)c1` (stereo unspecified), for which the GI50 was 12.3 nM and the TGI was 40.5 nM. In the case of `COc1ccc2c(CCC(c3ccccc3)c3ccccc3)c3[n+](cc2c1OC)CCc1cc2c(cc1-3)OCO2`, the TGI turned out to be 228 nM. For `COc1cc(/C=C/C(=O)c2cc(OC)c(OC)c(OC)c2)ccc1Oc1nc2c(c(=O)n(C)c(=O)n2C)n1C`, the GI50 is 1920 nM and the TGI was determined as 3730 nM. On to `CC[C@]12C=CCN3CC[C@]4(C(=C(C(=O)OC)C1)Nc1cc(OC)c(OC(C)=O)cc14)[C@@H]32`, for which the GI50 was 428 nM and the TGI was determined as 20200 nM. Take `Nc1ccc2c(c1)Cc1cc(Cl)c(Cl)cc1-2`: the GI50 was 1360 nM and the TGI worked out at 86400 nM. On to `Cc1cc(C)c(CNC(=O)c2cc(-c3ccc(CN4CCOCC4)cc3)cc3c2cnn3C2CCCC2)c(=O)[nH]1`, for which the GI50 is 13900 nM and the TGI worked out at 36200 nM. For `NC(=O)c1cccc(-n2ccc3cc(NC(=O)Nc4ccc(N5CCOCC5)c(C(F)(F)F)c4)ccc32)n1`, in that order: 2440 nM and 7530 nM. As to `CC(=O)OCC1OC(OC2=C(CC=C(C)C)C(=O)c3ccccc3C2=O)C(OC(C)=O)C(OC(C)=O)C1OC(C)=O` (stereo unspecified), the GI50 is 1580 nM and the TGI is 3680 nM. On to `O=C(N/N=C/c1ccc(Cl)s1)c1[nH]c2ccc(Br)cc2c1-c1ccccc1`, for which the GI50 is 286 nM and the TGI worked out at 4200 nM. As for `O=C1/C(=C\c2ccc(Br)cc2)CN(C(=O)c2ccccc2F)C/C1=C\c1ccc(Br)cc1`, the GI50 is 1690 nM and the TGI was 3690 nM. `CC(C)(C)c1[nH]nc2c1C(c1cc3ccccc3[nH]c1=O)Nc1cc(C(=O)Nc3ccc(Cl)cc3)ccc1N2` (stereo unspecified): the GI50 was 1360 nM and the TGI came out at 3080 nM. For `Nc1nc2c(c3cnccc13)C(c1cccc(Br)c1)Cc1cnccc1-2` (stereo unspecified), in that order: 257 nM and 808 nM. The matching figures for `COc1ccc(C2=C(c3cn(C)c4ccccc34)C(=O)NC2=O)cc1`: 9840 nM and more than 25000 nM. As for `CC(C)=CC(=O)OCC(=O)O[C@@H]1C[C@]2(C(C)C)O[C@@]1(C)[C@@H]1CC[C@@H](C)[C@H]1[C@@H]2OC(=O)/C=C/c1ccccc1`, the GI50 was 11400 nM and the TGI was more than 82700 nM.

Regarding `O=C1OCC2=C1C(c1cccc(F)c1)c1cc3c(cc1N2CCO)CCC3` (stereo unspecified), the GI50 is 37.1 nM and the TGI turned out to be 1090 nM. In the case of `COc1cc(Nc2cc(C)nc(N3CCN(c4ccnc5cc(Cl)ccc45)CC3)n2)cc(OC)c1`, the GI50 is 129 nM and the TGI was 3200 nM.

With `CN(C)c1ccc2nc3ccc(=N)cc-3sc2c1`, the GI50 is 3520 nM and the TGI was found to be 13800 nM. As for `CCN(CC)c1ccc(N=O)cc1`, the GI50 is 1720 nM and the TGI turned out to be 4390 nM. Regarding `COc1cc2c3c(n(CCCN4CCCCC4)c(=O)c2cc1OC)-c1cc2c(cc1C3=O)OCO2`, the GI50 was 1490 nM and the TGI came out at 2860 nM. For `Cc1c(NC(=O)c2cc(C(N)=O)nc3cc(F)ccc23)c(C(F)(F)F)nn1Cc1ccc(C#N)cc1`, in that order: 6580 nM and more than 71900 nM. For `c1cc(N2CCCC2)c2nc(-c3[nH]ncc3Nc3ncnc4[nH]ccc34)[nH]c2c1`, in that order: 66.1 nM and 265 nM. For the compound `CCOC(=O)c1c(NCC(=O)Nc2cccc([N+](=O)[O-])c2)sc(C(C)=O)c1C`, the GI50 was 1850 nM and the TGI stood at 4530 nM. With `O=C1NC(=NCCc2cccs2)S/C1=C\c1ccc2ncccc2c1`, the GI50 was 5530 nM and the TGI was more than 25000 nM. As to `CCN1CCN(c2cc(C)nc(N(CCCNc3ccnc4cc(Cl)ccc34)Cc3cccs3)n2)CC1`, the GI50 is 1980 nM and the TGI worked out at 5090 nM. The matching figures for `CC1(C)CCC(S(=O)(=O)c2ccc3c(c2)/C(=N\O)c2cc(S(=O)(=O)N4CCN(c5ccc(F)cc5O)CC4)ccc2-3)CC1`: 37.1 nM and 134 nM. For `COc1cc(C(=O)/C=C/c2c(-c3cccs3)nc3sc(C)cn23)cc(OC)c1OC`, in that order: 2230 nM and 8450 nM. Regarding `CC#Cc1nc2ccccc2c(=O)[nH]1`, the GI50 is 2360 nM and the TGI came to 6040 nM. With `COc1cccc2c1C(=O)c1c(O)c3c(c(O)c1C2=O)C[C@@](O)(C(=O)CO)C[C@@H]3OC1CC(N)C(O)C(C)O1` (stereo partly specified), the GI50 is 59.9 nM and 58.9 nM and 97.1 nM; the TGI is 250 nM and 236 nM and 486 nM. In the case of `Cc1cccc(NC(=O)c2sc3nc4c(cc3c2N)CCCC4)c1`, the GI50 was 1750 nM and the TGI came out at 44100 nM. For `CCOC(=O)c1cc(C(=O)c2ccc(Cl)cc2)n2ccc(-c3cc[n+](CC(=O)c4ccc(OC)cc4)cc3)cc12`, in that order: 1840 nM and 3750 nM. For `Cc1ncn(-c2ccc(/C=N/Nc3ccnc4cc(Cl)ccc34)cc2)c1C`, the GI50 is 1480 nM and the TGI came to 3000 nM. As to `C=C(C)[C@@H]1CC[C@]2(CNCCO)CC[C@]3(C)[C@H](CC[C@@H]4[C@@]5(C)CCC(N)[C@@](C)(CO)[C@@H]5CC[C@]43C)[C@@H]12` (stereo partly specified), the GI50 was 1610 nM and the TGI was 3180 nM.
